Measured values published in patent US10647713B2 (Nimbus Lakshmi, Inc., priority 2016, dated 2020).

biological target: human TYK2 (JH2domain-pseudokinase) (Homo sapiens (Human), UniProt P29597); experiment: TYK2 JH2 Domain Binding Assay (KINOMEscan, DiscoveRx); conditions: 11-point dilution, duplicate
Method: Binding constants for compounds of the present invention against the JH2 domain were determined by the following protocol for a KINOMEscan® assay (DiscoveRx). A fusion protein of a partial length construct of human TYK2 (JH2domain-pseudokinase) (amino acids G556 to D888 based on reference sequence NP_003322.3) and the DNA binding domain of NFkB was expressed in transiently transfected HEK293 cells. From these HEK 293 cells, extracts were prepared in M-PER extraction buffer (Pierce) in the presence of Protease Inhibitor Cocktail Complete (Roche) and Phosphatase Inhibitor Cocktail Set II (Merck) per manufacturers' instructions. The TYK2 (JH2domain-pseudokinase) fusion protein was labeled with a chimeric double-stranded DNA tag containing the NFkB binding site (5′-GGGAATTCCC-3′) fused to an amplicon for qPCR readout, which was added directly to the expression extract (the final concentration of DNA-tag in the binding reaction is 0.1 nM).
Streptavidin-coated magnetic beads (Dynal M280) were treated with a biotinylated small molecule ligand for 30 minutes at room temperature to generate affinity resins the binding assays. The liganded beads were blocked with excess biotin and washed with blocking buffer (SeaBlock (Pierce), 1% BSA, 0.05% Tween 20, 1 mM DTT) to remove unbound ligand and to reduce nonspecific binding.
The binding reaction was assembled by combining 16 μl of DNA-tagged kinase extract, 3.8 μl liganded affinity beads, and 0.18 μl test compound (PBS/0.05% Tween 20/10 mM DTT/0.1% BSA/2 μg/ml sonicated salmon sperm DNA)]. Extracts were used directly in binding assays without any enzyme purification steps at a ≥10,000-fold overall stock dilution (final DNA-tagged enzyme concentration <0.1 nM). Extracts were loaded with DNA-tag and diluted into the binding reaction in a two step process. First extracts were diluted 1:100 in 1× binding buffer (PBS/0.05% Tween 20/10 mM DTT/0.1% BSA/2 μg/ml sonicated salmon sperm DNA) containing 10 nM DNA-tag. This dilution was allowed to equilibrate at room temperature for 15 minutes and then subsequently diluted 1:100 in 1× binding buffer. Test compounds were prepared as 111× stocks in 100% DMSO. Kds were determined using an 11-point 3-fold compound dilution series with three DMSO control points. All compounds for Kd measurements are distributed by acoustic transfer (non-contact dispensing) in 100% DMSO. The compounds were then diluted directly into the assays such that the final concentration of DMSO was 0.9%. All reactions performed in polypropylene 384-well plates. Each was a final volume of 0.02 mL. Assays were incubated with shaking for 1 hour at room temperature. Then the beads were pelleted and washed with wash buffer (1×PBS, 0.05% Tween 20) to remove displaced kinase and test compound. The washed based were re-suspended in elution buffer (1×PBS, 0.05% Tween 20, 0.5 μM non-biotinylated affinity ligand) and incubated at room temperature with shaking for 30 minutes. The kinase concentration in the eluates was measured by qPCR. qPCR reactions were assembled by adding 2.5 μL of kinase eluate to 7.5 μL of qPCR master mix containing 0.15 μM amplicon primers and 0.15 μM amplicon probe. The qPCR protocol consisted of a 10 minute hot start at 95° C., followed by 35 cycles of 95° C. for 15 seconds, 60° C. for 1 minute.
Test compounds were prepared as 111× stocks in 100% DMSO. Kds were determined using an 11-point 3-fold compound dilution series with three DMSO control points. All compounds for Kd measurements are distributed by acoustic transfer (non-contact dispensing) in 100% DMSO. The compounds were then diluted directly into the assays such that the final concentration of DMSO was 0.9%. The Kds were determined using a compound top concentration of 30,000 nM. Kd measurements were performed in duplicate.
Binding constants (Kds) were calculated with a standard dose-response curve using the Hill equation: […]
The Hill Slope was set to −1. […]

Sequence of human TYK2 (JH2domain-pseudokinase) (P29597 556-888): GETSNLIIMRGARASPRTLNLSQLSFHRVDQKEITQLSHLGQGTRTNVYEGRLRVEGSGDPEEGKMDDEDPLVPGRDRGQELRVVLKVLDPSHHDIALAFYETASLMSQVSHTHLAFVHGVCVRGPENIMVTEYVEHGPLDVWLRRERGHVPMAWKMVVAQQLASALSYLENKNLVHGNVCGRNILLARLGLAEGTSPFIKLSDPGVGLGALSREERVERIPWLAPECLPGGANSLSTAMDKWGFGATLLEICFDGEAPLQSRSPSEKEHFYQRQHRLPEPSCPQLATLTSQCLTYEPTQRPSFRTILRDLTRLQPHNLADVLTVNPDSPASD

| Kd | SMILES |
| --- | --- |
| 0.1 to 0.5 nM | CN=S(C)(=O)c1ccccc1Nc1cc(NC(=O)C2CC2)nc2[nH]c(C)nc12 (stereo not drawn) [I-328, N-(7-((2-(N,S-dimethylsulfonimidoyl)phenyl)amino)-2-methyl-3H-imidazo[4,5-b]pyridin-5-yl)cyclopropanecarboxamide] |
| 0.1 to 0.5 nM | Cc1nc2c(Nc3ccc(C4CCCOC4)cc3S(C)(=O)=O)cc(NC(=O)C3CC3)nc2[nH]1 (stereo not drawn) [I-390, N-(2-methyl-7-((2-(methylsulfonyl)-4-(tetrahydro-2H-pyran-3-yl)phenyl)amino)-3H-imidazo[4,5-b]pyridin-5-yl)cyclopropanecarboxamide] |
| 0.1 to 0.5 nM | [2H]C([2H])([2H])N(c1ccccc1Nc1cc(Nc2cc(C)nc(C)n2)nc2[nH]c(C(F)F)nc12)S(C)(=O)=O [I-200, N-(2-((2-(difluoromethyl)-5-((2,6-dimethylpyrimidin-4-yl)amino)-3H-imidazo[4,5-b]pyridin-7-yl)amino)phenyl)-N-(methyl-d3)methanesulfonamide] |
| 1 to 10 nM | Cc1nc2c(Nc3ccc(C4=NC(C)(C)CS4)cc3S(C)(=O)=O)cc(NC(=O)[C@H]3CC3(F)F)nc2[nH]1 [I-484, (R)—N-(7-((4-(4,4-dimethyl-4,5-dihydrothiazol-2-yl)-2-(methylsulfonyl)phenyl)amino)-2-methyl-3H-imidazo[4,5-b]pyridin-5-yl)-2,2-difluorocyclopropane-1-carboxamide] |
| 0.1 to 0.5 nM | Cc1cnc(-c2ccc(Nc3cc(NC(=O)C4CC4)nc4[nH]c(C(F)F)nc34)c(S(C)(=O)=O)c2)n1C [I-451, N-(2-(difluoromethyl)-7-((4-(1,5-dimethyl-1H-imidazol-2-yl)-2-(methylsulfonyl)phenyl)amino)-3H-imidazo[4,5-b]pyridin-5-yl)cyclopropaneCarboxamide] |
| 0.5 to 1 nM | COc1c(Nc2cc(Nc3cc4c(nn3)CCC4)nc3[nH]c(C(F)F)nc23)cccc1-c1ncnn1C [I-647] |
| > 10 nM | COc1c(Nc2cc(NC(=O)C3CC3)nc3[nH]c(C(F)(F)F)nc23)cccc1-c1nnn(C)n1 [I-172, N-(7-((2-methoxy-3-(2-methyl-2H-tetrazol-5-yl)phenyl)amino)-2-(trifluoromethyl)-3H-imidazo[4,5-b]pyridin-5-yl)cyclopropanecarboxamide] |
| > 10 nM | COc1c(Nc2cc(NC(=O)C3CC3)nc3[nH]c(C4CC4)nc23)cccc1-c1ncn(C)n1 [I-9, N-(2-cyclopropyl-7-((2-methoxy-3-(1-methyl-1H-1,2,4-triazol-3-yl)phenyl)amino)-3H-imidazo[4,5-b]pyridin-5-yl)cyclopropanecarboxamide] |
| 1 to 10 nM | Cc1nc2c(Nc3ccc([C@H]4CCOC4)cc3S(C)(=O)=O)cc(NC(=O)C3CC3)nc2[nH]1 [I-292, (R)—N-(2-methyl-7-((2-(methylsulfonyl)-4-(tetrahydrofuran-3-yl)phenyl)amino)-3H-imidazo[4,5-b]pyridin-5-yl)cyclopropanecarboxamide] |
| 0.5 to 1 nM | Cc1ccn(-c2ccc(Nc3cc(NC(=O)C4CC4)nc4[nH]c(C(F)F)nc34)c(N(C)S(C)(=O)=O)c2)n1 [I-139, N-(2-(difluoromethyl)-7-((4-(3-methyl-1H-pyrazol-1-yl)-2-(N-methylmethylsulfonamido)phenyl)amino)-3H-imidazo[4,5-b]pyridin-5-yl)cyclopropanecarboxamide] |
| 0.1 to 0.5 nM | COc1c(Nc2cc(NC(=O)C3CC3)nc3[nH]cnc23)cccc1-c1ncn(C)n1 [I-1, N-(7-((2-methoxy-3-(1-methyl-1H-1,2,4-triazol-3-yl)phenyl)amino)-3H-imidazo[4,5-b]pyridin-5-yl)cyclopropanecarboxamide] |
| 0.5 to 1 nM | Cc1nc2c(Nc3ccc(-c4ccn(C)n4)cc3S(C)(=O)=O)cc(NC(=O)C3CC3(F)F)nc2[nH]1 (stereo not drawn) [I-377, 2,2-difluoro-N-(2-methyl-7-((4-(1-methyl-1H-pyrazol-3-yl)-2-(methylsulfonyl)phenyl)amino)-3H-imidazo[4,5-b]pyridin-5-yl)cyclopropane-1-carboxamide] |
| < 0.1 nM | Cc1cc(Nc2cc(Nc3ccc([C@H]4CCCCO4)cc3S(C)(=O)=O)c3nc(C)[nH]c3n2)nc(C)n1 [I-529] |
| < 0.1 nM | Cc1nc2c(Nc3ccccc3S(C)(=O)=O)cc(Nc3ccc4c(n3)CCOC4)nc2[nH]1 [I-532] |
| 0.1 to 0.5 nM | CS(=O)(=O)c1cc(C2CCOCC2)ccc1Nc1cc(NC(=O)C2CC2)nc2[nH]c(C(F)F)nc12 [I-232, N-(2-(difluoromethyl)-7-((2-(methylsulfonyl)-4-(tetrahydro-2H-pyran-4-yl)phenyl)amino)-3H-imidazo[4,5-b]pyridin-5-yl)cyclopropanecarboxamide] |

| SMILES | Kd |
| --- | --- |
| Cc1csc(-c2ccc(Nc3cc(NC(=O)C4CC4)nc4[nH]c(C(F)F)nc34)c(S(C)(=O)=O)c2)n1 [I-288, N-(2-(difluoromethyl)-7-((2-(methylsulfonyl)-4-(4-methylthiazol-2-yl)phenyl)amino)-3H-imidazo[4,5-b]pyridin-5-yl)cyclopropanecarboxamide] | 0.1 to 0.5 nM |
| COc1ccccc1Nc1cc(NC(=O)C2CC2)nc2[nH]c(C)nc12 [I-106, N-(7-((2-methoxyphenyl)amino)-2-methyl-3H-imidazo[4,5-b]pyridin-5-yl)cyclopropanecarboxamide] | > 10 nM |
| Cc1nc2c(Nc3ccc(-c4cnn(C)c4C)cc3N(C)S(C)(=O)=O)cc(NC(=O)C3CC3)nc2[nH]1 [I-199, N-(7-((4-(1,5-dimethyl-1H-pyrazol-4-yl)-2-(N-methylmethylsulfonamido)phenyl)amino)-2-methyl-3H-imidazo[4,5-b]pyridin-5-yl)cyclopropanecarboxamide] | < 0.1 nM |
| Cc1nc2c(Nc3ccc(C4CCCO4)cc3S(C)(=O)=O)cc(NC(=O)C3CC3)nc2[nH]1 (stereo not drawn) [I-334, N-(2-methyl-7-((2-(methylsulfonyl)-4-(tetrahydrofuran-2-yl)phenyl)amino)-3H-imidazo[4,5-b]pyridin-5-yl)cyclopropanecarboxamide] | < 0.1 nM |
| Cc1ccc(Nc2cc(Nc3cnc(C)c(C)n3)nc3[nH]c(C)nc23)c(N(C)S(C)(=O)=O)c1 [I-132, N-(2-((5-((5,6-dimethylpyrazin-2-yl)amino)-2-methyl-3H-imidazo[4,5-b]pyridin-7-yl)amino)-5-methylphenyl)-N-methylmethanesulfonamide] | 0.1 to 0.5 nM |
| Cc1nc2c(Nc3ccc([C@@H]4COCCO4)cc3S(C)(=O)=O)cc(NC(=O)C3CC3)nc2[nH]1 [I-611, (R)—N-(7-((4-(1,4-dioxan-2-yl)-2-(methylsulfonyl)phenyl)amino)-2-methyl-3H-imidazo[4,5-b]pyridin-5-yl)cyclopropanecarboxamide] | 0.1 to 0.5 nM |
| COc1c(Nc2cc(NC(=O)C3CC3)nc3[nH]c(C)nc23)cccc1-n1cnc(C)n1 [I-128, N-(7-((2-methoxy-3-(3-methyl-1H-1,2,4-triazol-1-yl)phenyl)amino)-2-methyl-3H-imidazo[4,5-b]pyridin-5-yl)cyclopropanecarboxamide] | 1 to 10 nM |
| Cn1ccc(-c2ccc(Nc3cc(NC(=O)C4CC4)nc4[nH]c(C(F)F)nc34)c(S(C)(=O)=O)c2)n1 [I-61, N-(2-(difluoromethyl)-7-((4-(1-methyl-1H-pyrazol-3-yl)-2-(methylsulfonyl)phenyl)amino)-3H-imidazo[4,5-b]pyridin-5-yl)cyclopropanecarboxamide] | 0.1 to 0.5 nM |
| Cc1csc(-c2ccc(Nc3cc(Nc4cnc(C)c(C)n4)nc4[nH]c(C)nc34)c(S(C)(=O)=O)c2)n1 [I-464, N5-(5,6-dimethylpyrazin-2-yl)-2-methyl-N7-(2-(methylsulfonyl)-4-(4-methylthiazol-2-yl)phenyl)-3H-imidazo[4,5-b]pyridine-5,7-diamine] | 0.5 to 1 nM |
